Assay results: patent US9371304B2, “Compound separated from monascus-fermented rice,the preparation method and uses thereof” (Beijing Peking University WBL Biotech Co. Ltd, priority 2011, dated 2016)
Each block holds one compound with its values, some of them ahead of it.

Biological target: T1, HMG-CoA reductase (microsomes of rat liver) (Rattus norvegicus, UniProt P51639)
T1 construct: from tissue; host or cells: rat liver microsomes
T1 sequence (P51639 1-887): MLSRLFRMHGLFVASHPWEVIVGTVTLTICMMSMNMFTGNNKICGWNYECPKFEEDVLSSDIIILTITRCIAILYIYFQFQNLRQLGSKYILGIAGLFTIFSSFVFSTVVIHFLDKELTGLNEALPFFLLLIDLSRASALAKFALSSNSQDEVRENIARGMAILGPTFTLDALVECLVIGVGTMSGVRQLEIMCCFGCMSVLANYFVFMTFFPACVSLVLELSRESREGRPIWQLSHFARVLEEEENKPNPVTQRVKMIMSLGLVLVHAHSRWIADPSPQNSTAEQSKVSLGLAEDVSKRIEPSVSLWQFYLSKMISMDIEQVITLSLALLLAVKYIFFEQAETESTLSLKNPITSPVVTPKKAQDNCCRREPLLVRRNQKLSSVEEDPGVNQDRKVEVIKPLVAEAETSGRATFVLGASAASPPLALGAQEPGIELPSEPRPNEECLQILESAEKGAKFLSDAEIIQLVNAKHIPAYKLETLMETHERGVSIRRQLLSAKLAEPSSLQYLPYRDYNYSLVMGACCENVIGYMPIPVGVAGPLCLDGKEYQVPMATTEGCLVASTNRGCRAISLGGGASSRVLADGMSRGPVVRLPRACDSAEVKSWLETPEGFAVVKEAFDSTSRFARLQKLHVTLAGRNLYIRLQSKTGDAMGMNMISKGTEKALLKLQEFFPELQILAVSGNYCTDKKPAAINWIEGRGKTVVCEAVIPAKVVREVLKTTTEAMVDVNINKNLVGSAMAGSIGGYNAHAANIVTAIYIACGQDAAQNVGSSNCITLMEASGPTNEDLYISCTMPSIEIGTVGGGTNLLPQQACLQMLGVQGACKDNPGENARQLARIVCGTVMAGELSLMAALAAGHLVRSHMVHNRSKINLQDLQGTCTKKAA
Test: Test of inhibiting activity of HMG-CoA reductase (rate of decline of OD340)
Type: biochemical
Conditions: for Slope (rate of decline of OD340 within 5 min): blank control slope 9.971
Experimental: 1. Experimental Materials
The compound of Formula II prepared according to Example 1.
monacolin L (purchased or prepared according to the method of the contents of the present invention)
Standard Sample of Lovastatin (Purchased from Sigma)
Microsomes of rat liver (HMG-CoA reductase) were purchased, or prepared according to the following method: liver of a male rat was taken out, washed with KESD buffering solution, then centrifuged at 1,200 g for 15 min, the supernatant was taken out, and then centrifuged at 105,000 g for 90 min twice, and a centrifugation precipitate was collected. The centrifugation precipitate was added with 8.3% glycerol, heated with 37° C. bath for 1 h. The microsomes of rat liver were purified with saturated ammonium sulfate and the 33-50% purified fraction was collected. The obtained microsomes of rat liver were stored in refrigerator at −80° C.
Potassium chloride, potassium dihydrogen phosphate, ethylene diamine tetraacetic acid, dithiothreitol (all purchased from Beijing Chemical Reagent Co., Ltd.)
[…] (purchased from Merck) 3-hydroxy-3-methylglutaryl coenzyme A (HMG-CoA) and cremophore EL (purchased from Sigma).
The compound as prepared according to Example 1 was dissolved with 50% cremophore EL ethanol solution, and the concentration was 2 mg/mL; the total volume of the system was determined and it was 250 μL, and the concentration of each component was: potassium chloride 200 mM, potassium dihydrogen phosphate 160 mM, ethylene diamine tetraacetic acid 4 mM, dithiothreitol 10 mM, concentrations of two substrates, nicotinamide adenine dinucleotide and 3-hydroxy-3-methylglutaryl coenzyme A, 200 μM and 50 μM separately, pH6.8, addition of enzyme 30 μL, enzyme inhibitor 5 μL, blank control group 5 μL (solvent for dissolving sample). The dynamic change of OD340 was detected with Versamax ELIASA at 37° C. The rate of decline (represented with slope value) of OD340 within 5 min was used to evaluate the activity of HMG-CoA reductase, and then to evaluate the activity of enzyme inhibitor.

activity for inhibiting HMG-CoA reductase (in words) (conclusion drawn from Table 2): effective activity
Slope (rate of decline of OD340 within 5 min) (final concentration 40 μg/mL, 37° C., pH6.8): 7.344
inhibition at 40 µg/mL (pH 6.8, final concentration 40 μg/mL, 37° C., pH6.8): 26.3%
Structure (SMILES): CC1C=C2C=CC(C)C(CCC3CC=CC(=O)O3)C2CC1 (stereo not shown) [6-(2-(2,6-dimethyl-1,2,6,7,8,8a-hexahydronaphthalen-1-yl)ethyl)-5,6-dihydropyran-2-one]

Slope (rate of decline of OD340 within 5 min) (final concentration 34 μg/mL, 37° C., pH6.8): 6.022
inhibition at 34 µg/mL (pH 6.8, final concentration 34 μg/mL, 37° C., pH6.8): 39.6%
Structure (SMILES): CC[C@H](C)C(=O)O[C@H]1C[C@@H](C)C=C2C=C[C@H](C)[C@H](CC[C@@H]3C[C@@H](O)CC(=O)O3)[C@H]21 [Lovastatin]

Slope (rate of decline of OD340 within 5 min) (final concentration 30 μg/mL, 37° C., pH6.8): 7.279
inhibition at 30 µg/mL (pH 6.8, final concentration 30 μg/mL, 37° C., pH6.8): 27%
Structure (SMILES): CC1C=C2C=CC(C)C(CCC3CC(O)CC(=O)O3)C2CC1 (stereo not shown) [monacolin L]
